Test results published in US20220054493A1, “INHIBITORS OF NGAL PROTEIN” (INSERM (INSTITUT NATIONAL DE LA SANTÉ ET DE LA RECHERCHE …, priority 2019, published 2022).
Blank lines part the entries; values can stand above or below the compound they belong to.

Key:
NGAL [1] = molecular target: T1, NGAL (Homo sapiens, UniProt P80188); assay: NGAL-induced IL6 secretion in human cardiac fibroblasts (ELISA); type: cell-based; settings: for Activity: NGAL-induced IL6 secretion (NGAL 10 ng/ml), Control = 1.00 ± 0.03
T1 construct: purchased R&D Systems
T1 sequence (P80188 21-198): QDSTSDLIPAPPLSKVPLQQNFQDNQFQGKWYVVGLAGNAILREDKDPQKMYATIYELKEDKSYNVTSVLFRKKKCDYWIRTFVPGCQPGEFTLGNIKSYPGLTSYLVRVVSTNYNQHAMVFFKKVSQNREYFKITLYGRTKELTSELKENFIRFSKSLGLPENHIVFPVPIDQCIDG
Method: (§1) Cell Culture Human cardiac fibroblasts (primary culture) were obtained from Promocell and maintained in medium (Fibroblast Media 3). Cells were cultured according to the manufacturer's instructions and used between passages 5 and 7. Cells were stimulated with aldosterone (10^-8 M, Sigma) or recombinant hNGAL (500 ng/mL, R&D Systems) for 24 h for protein analysis. Mouse kidney fibroblasts (MKF), were isolated from Wild Type (WT) mice. Briefly, mice 7 to 8 weeks were sacrificed by cervical dislocation and kidneys were cleaned and rinsed in cold DPBS (Dulbecco's Phosphate-Buffered Saline). The renal cortex was minced and incubated in Dulbecco's modified eagle medium/Nutrient mixture F-12 (DMEM/F12, Sigma) containing 1 mg/mL collagenase A (Roche) during 25 minutes at 37° C. The digestion was inactivated by adding culture medium (DMEM/F12+10% FBS) then the cell suspension was passed through a 100-μm cell strainer. After centrifugation, the pellet (containing MKF) was diluted with culture medium then plated in 75 cm^2 culture flask. After 24 hours MKF were washed with DPBS before replacement of fresh culture medium. Thereafter, culture medium was changed every 48 hours. Once 70-80% confluent, MKF were trypsinized and plated in 12 or 6-well plates. For experimental use, MKF were starved with culture medium containing only 3% FBS. MKF were treated with mNGAL (500 ng/mL, R&D Systems) for 24 h for gene expression analysis.
(§2) NGAL, IL6 and collagen type I concentrations were measured in cardiac tissue and cell supernatants, respectively, by ELISA according to the manufacturer's instructions (R&D Systems).
The inhibitory activity of the compounds was evaluated on the NGAL-induced IL6 secretion (NGAL 10 ng/ml) in human cardiac fibroblasts.
Inhibitory activities of 23 second generation compounds derived from GPZ614741 and GPZ058225 were evaluated on the NGAL-induced IL6 secretion (NGAL 10 ng/ml) in human cardiac fibroblasts.

CaCo2 cell line = assay: Bi-CaCo2 permeability assay; type: in vitro ADME, human
Method: (§3) The Caco-2 Permeability assay uses an established method for predicting the in vivo absorption of drugs across the gut wall. The transport rate across the CaCo2 cell line is measured. This cell line has a human colon carcinoma origin and resembles to the intestinal epithelia (a polarised monolayer with microvilli and intercellular tight junctions).
(§4) Bidirectional transport (apical to basolateral (A-B) and basolateral to apical (B-A)) across the cell monolayer were determined allowing to calculate the efflux ratio (an indicator as to whether a compound undergoes active efflux).

NGAL [2] = molecular target: T1, NGAL; assay: NGAL-induced Col 1 secretion in human cardiac fibroblasts (ELISA); type: cell-based; settings: FIGS. 1 and 2 panel B
Method: as §1, with “After 24 hours MKF were washed with DPBS before replacement of fresh culture medium. Thereafter, culture medium was changed every 48 hours. Once 70-80% confluent, MKF were trypsinized and plated in 12 or 6-well plates. For experimental use, MKF were starved with culture medium containing only 3% FBS. MKF were treated with mNGAL (500 ng/mL, R&D Systems) for 24 h for gene expression analysis.” left out
as §2
(§5) The inhibitory activity of the compounds was evaluated on the NGAL-induced IL6 secretion (NGAL 10 ng/ml) in human cardiac fibroblasts. […]

NGAL [3] = molecular target: T1, NGAL; assay: NGAL-induced profibrotic marker synthesis in human cardiac fibroblasts (western blot); type: cell-based; settings: FIGS. 1 and 2 panel C
Method: (§6) Cell Culture Human cardiac fibroblasts (primary culture) were obtained from Promocell and maintained in medium (Fibroblast Media 3). Cells were cultured according to the manufacturer's instructions and used between passages 5 and 7. Cells were stimulated with aldosterone (10^-8 M, Sigma) or recombinant hNGAL (500 ng/mL, R&D Systems) for 24 h for protein analysis. Mouse kidney fibroblasts (MKF), were isolated from Wild Type (WT) mice. Briefly, mice 7 to 8 weeks were sacrificed by cervical dislocation and kidneys were cleaned and rinsed in cold DPBS (Dulbecco's Phosphate-Buffered Saline). The renal cortex was minced and incubated in Dulbecco's modified eagle medium/Nutrient mixture F-12 (DMEM/F12, Sigma) containing 1 mg/mL collagenase A (Roche) during 25 minutes at 37° C. […]
(§7) Total protein aliquots of 20 μg were prepared from cardiac homogenates and electrophoresed on SDS polyacrylamide gels and transferred to Hybond-c Extra nitrocellulose membranes (Amersham Biosciences). […] After densitometric analyses, optical density values were expressed as arbitrary units. Results are expressed as an n-fold increase over the values of the control group in densitometric arbitrary units.
as §5

[4] = system: aldosterone-induced profibrotic marker synthesis; assay: Aldosterone-induced profibrotic marker synthesis in human cardiac fibroblasts; type: cell-based; settings: FIGS. 1 and 2 panel D
Method: as §6, with “Saline).” for “Saline). The renal cortex was minced and incubated in Dulbecco's modified eagle medium/Nutrient mixture F-12 (DMEM/F12, Sigma) containing 1 mg/mL collagenase A (Roche) during 25 minutes at 37° C.”
as §7, §2, §5

[5] = system: isolated hepatocytes from swiss mice; assay: Hepatotoxicity, MTT colorimetric assay; type: cell-based
Method: (§8) Two specific toxicity assays have been performed to assess hepatoxicity and cardiotoxicity. Hepatotoxicity was evaluated in isolated hepatocytes from swiss mice and determined by the MTT colorimetric assay. Cardiotoxicity was evaluated using the commercially available Predictor hERG fluorescence polarization kit (Thermo Fisher Scientific). Several ADME assays have been carried out on the compounds generated throughout the project. The following experiments were undertaken: Stability in human microsomes, binding to human plasma protein, and CYP3A4 inhibition assay (Vivid CYP3A4 assay, Thermo Fisher Scientific). Physico-chemical properties were also assessed such as aqueous solubility and chemical stability.

hERG channel = molecular target: T2, hERG channel (Homo sapiens, UniProt Q12809); assay: Cardiotoxicity, Predictor hERG fluorescence polarization kit; type: binding
T2 construct: purchased Thermo Fisher Scientific
T2 sequence (Q12809 whole entry): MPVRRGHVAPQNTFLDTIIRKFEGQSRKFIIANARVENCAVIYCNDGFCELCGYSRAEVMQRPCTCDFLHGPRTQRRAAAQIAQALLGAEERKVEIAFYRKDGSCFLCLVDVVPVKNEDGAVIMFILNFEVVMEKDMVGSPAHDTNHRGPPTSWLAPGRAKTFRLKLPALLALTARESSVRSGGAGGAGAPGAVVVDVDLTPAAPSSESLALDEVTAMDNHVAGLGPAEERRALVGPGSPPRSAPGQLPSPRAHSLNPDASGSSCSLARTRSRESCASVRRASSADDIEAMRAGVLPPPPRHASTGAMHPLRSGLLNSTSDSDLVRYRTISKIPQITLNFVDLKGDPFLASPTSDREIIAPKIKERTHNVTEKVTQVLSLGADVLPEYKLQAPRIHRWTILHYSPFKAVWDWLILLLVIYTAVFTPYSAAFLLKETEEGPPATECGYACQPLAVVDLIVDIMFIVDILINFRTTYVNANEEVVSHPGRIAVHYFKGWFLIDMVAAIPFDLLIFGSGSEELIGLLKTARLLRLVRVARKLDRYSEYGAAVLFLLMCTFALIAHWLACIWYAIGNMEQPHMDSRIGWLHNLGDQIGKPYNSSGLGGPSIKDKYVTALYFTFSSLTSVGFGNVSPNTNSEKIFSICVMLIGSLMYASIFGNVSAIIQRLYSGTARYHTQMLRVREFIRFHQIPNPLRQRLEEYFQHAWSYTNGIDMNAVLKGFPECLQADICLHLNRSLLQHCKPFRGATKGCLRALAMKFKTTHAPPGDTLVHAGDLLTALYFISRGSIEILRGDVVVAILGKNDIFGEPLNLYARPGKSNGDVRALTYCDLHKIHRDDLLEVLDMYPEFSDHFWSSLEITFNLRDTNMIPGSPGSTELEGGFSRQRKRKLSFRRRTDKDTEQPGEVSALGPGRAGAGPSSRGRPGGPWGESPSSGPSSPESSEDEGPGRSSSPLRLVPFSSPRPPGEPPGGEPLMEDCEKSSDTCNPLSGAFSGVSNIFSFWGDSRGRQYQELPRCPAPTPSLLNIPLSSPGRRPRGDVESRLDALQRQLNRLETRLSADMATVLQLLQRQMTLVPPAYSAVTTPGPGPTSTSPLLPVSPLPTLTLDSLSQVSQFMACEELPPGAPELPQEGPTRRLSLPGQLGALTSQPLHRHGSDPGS
Method: as §8

human microsomes = assay: Stability in human microsomes; type: in vitro ADME
Method: as §8

[6] = Binding to human plasma protein; type: in vitro ADME; settings: human, human plasma protein; read-out: hPPB (converted)
Method: as §8

human plasma protein = assay: Binding to human plasma protein; type: in vitro ADME
Method: as §8

CYP3A4 = molecular target: T3, CYP3A4 (Homo sapiens, UniProt P08684); assay: CYP3A4 inhibition assay (Vivid CYP3A4 assay); type: in vitro ADME
T3 construct: purchased Thermo Fisher Scientific
T3 sequence (P08684 whole entry): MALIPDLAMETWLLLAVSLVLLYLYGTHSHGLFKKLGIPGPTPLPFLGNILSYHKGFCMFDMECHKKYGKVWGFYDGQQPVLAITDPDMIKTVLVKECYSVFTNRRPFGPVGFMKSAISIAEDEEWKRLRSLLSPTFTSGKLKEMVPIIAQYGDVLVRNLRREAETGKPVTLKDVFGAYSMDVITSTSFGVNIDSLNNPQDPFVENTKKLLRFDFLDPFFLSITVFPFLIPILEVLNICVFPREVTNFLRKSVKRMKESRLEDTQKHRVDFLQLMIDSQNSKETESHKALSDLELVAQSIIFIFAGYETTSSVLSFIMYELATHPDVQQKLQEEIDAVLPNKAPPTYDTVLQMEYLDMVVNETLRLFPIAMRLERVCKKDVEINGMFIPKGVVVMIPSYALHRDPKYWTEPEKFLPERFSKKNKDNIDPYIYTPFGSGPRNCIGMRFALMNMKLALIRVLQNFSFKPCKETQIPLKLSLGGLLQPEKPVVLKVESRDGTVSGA
Method: as §8

Aqueous solubility = type: physicochemical
Method: as §8

Chemical stability = type: physicochemical
Method: as §8

[7] = Bi-CaCo2 permeability assay; type: in vitro ADME, human; settings: human, Caco-2; efflux ratio
Method: as §3, §4

NGAL [8] = molecular target: T1, NGAL; assay: NGAL-induced proliferation of human cardiac fibroblast cells (MTT); type: cell-based; settings: NGAL 10 ng/ml; FIG. 3
Method: as §1
Cell proliferation was assessed using the MTT Proliferation Assay (Sigma).
Results are shown on FIG. 3.

SMILES: CCN1CCN(Cc2ccccc2CNS(=O)(=O)c2cccc(C(C)=O)c2)CC1 [GPZ913629]
- Activity (NGAL [1]): 0.93 ± 0.02

SMILES: CC(C)NC[C@H](O)COc1cccc2ccccc12 (racemic) [propanolol, reference compound]
- Ratio (CaCo2 cell line; efflux ratio): 1.56

SMILES: CCS(=O)(=O)c1ccc2oc(SCc3cn4c(C)cc(C)nc4n3)nc2c1 [GPZ058225]
- NGAL-induced IL6 secretion (NGAL [1]; NGAL 10 ng/ml, FIGS. 1 and 2 panel A): inhibited
- Col 1 secretion (NGAL-induced) (NGAL [2]): inhibited
- NGAL-induced profibrotic marker (col1, col III, fibronectin, Gal3, OPN) synthesis (NGAL [3]): inhibited
- aldosterone-induced profibrotic marker (Col1, CT-1, or IL6) synthesis [4]: inhibited
- hepatotoxicity (toxicity for hepatocytes) ([5]; MTT up to 0.1 mM): > 0.1 mM
- Hepatotoxicity ([5]; cell wrapped over two lines: No tox up / 100 uM): No tox up
- cardiotoxicity (hERG predictor assay) (hERG channel): did not block hERG channel
- Cardiotoxicity % (100 = no toxicity) (hERG channel; 100 = no toxicity): 101.73 ± 4.1%
- microsomes degradation, left after 2 h (human microsomes; after 2 h): very stable
- Micro Stability (human microsomes; human microsomes): 100%
- fraction unbound [6]: 0.109
- PPB (binding to plasma proteins) (human plasma protein): within acceptance range
- inhibited the enzyme activity (CYP3A4) in a competition assay (CYP3A4): 32%
- Activity (CYP3A4; human, recombinant CYP3A4 (Vivid CYP3A4 assay kit), 100 = no inhibition, read-out: CyP 3A4 Inhibition % (100 = no inhibition)): 68.1 ± 1.52%
- Aquous solubility (Aqueous solubility): 63.46%
- solubility in aqueous buffers (solubility test) (Aqueous solubility): 63%
- Chemical Stability (Chemical stability): 92.2%
- stability to acidic pH / digestive content (Chemical stability): very stable
- efflux ratio [7]: 2.11
- permeability through the intestinal epithelia (in words) (CaCo2 cell line; compared with reference compound propranolol): quite high

SMILES: CCN(CC)CCn1c(-c2ccccc2)noc1=N [GPZ646083, Imolamine]
- NGAL-induced proliferation of human cardiac fibroblast cells (NGAL [8]): Inhibitory effects

SMILES: O=C(Nc1nc2cc(F)c(F)cc2s1)c1cn2cccnc2n1 [GPZ278618]
- Activity (NGAL [1]): 0.86 ± 0.02

SMILES: Clc1c(SCc2nc3ccccc3s2)nc2ncccn12 [GPZ564849]
- Activity (NGAL [1]): 0.85 ± 0.05

SMILES: Cc1cc(C)n2cc(CSc3nc4ccccc4[nH]3)nc2n1 [GPZ743042]
- Activity (NGAL [1]): 0.94 ± 0.03

SMILES: CC(=O)c1ccc(S(=O)(=O)NC(=O)NC2CCCCC2)cc1 [GPZ706277, Acetohexamide]
- NGAL-induced proliferation of human cardiac fibroblast cells (NGAL [8]): Inhibitory effects

Further lines, results first:

- Activity (NGAL [1]): 0.69 ± 0.02
SMILES: CC(=O)c1ccc(S(=O)(=O)Nc2ccccc2-n2cccn2)cc1 [GPZ478519]

- Activity (NGAL [1]): 0.92 ± 0.04
SMILES: O=S(=O)(NCc1ccccc1-n1cccn1)c1ccccc1 [GPZ595600]

- Activity (NGAL [1]): 0.64 ± 0.02
SMILES: CC(=O)c1cccc(S(=O)(=O)NCc2ccccc2-c2ccc(CN(C)C)cc2)c1 [GPZ642292]

- NGAL-induced proliferation of human cardiac fibroblast cells (NGAL [8]): Inhibitory effects
SMILES: Nc1ccc(S(=O)(=O)Nc2ccnn2-c2ccccc2)cc1 [GPZ624624, Sulfaphenazole]

- Activity (NGAL [1]): 0.93 ± 0.03
SMILES: CC(=O)c1cccc(S(=O)(=O)NCc2ccccc2-c2ccsc2)c1 [GPZ863205]

- Activity (NGAL [1]): 0.83 ± 0.02
SMILES: CC(=O)c1cccc(S(=O)(=O)NCc2ccccc2Cn2cccn2)c1 [GPZ505884]

- Activity (NGAL [1]): 0.88 ± 0.04
SMILES: N#Cc1cccc(S(=O)(=O)NCc2cccc(-n3cccn3)c2)c1 [GPZ778195]
